The values that follow come from patent publication US10106523B2, “Amide compound” (ASTELLAS PHARMA INC., priority 2014, dated 2018).

One experiment addresses T1, rat EP1 receptor (Rattus norvegicus, UniProt P70597).
T1 construct: expressed in transfected cells
T1 sequence (P70597 1-405): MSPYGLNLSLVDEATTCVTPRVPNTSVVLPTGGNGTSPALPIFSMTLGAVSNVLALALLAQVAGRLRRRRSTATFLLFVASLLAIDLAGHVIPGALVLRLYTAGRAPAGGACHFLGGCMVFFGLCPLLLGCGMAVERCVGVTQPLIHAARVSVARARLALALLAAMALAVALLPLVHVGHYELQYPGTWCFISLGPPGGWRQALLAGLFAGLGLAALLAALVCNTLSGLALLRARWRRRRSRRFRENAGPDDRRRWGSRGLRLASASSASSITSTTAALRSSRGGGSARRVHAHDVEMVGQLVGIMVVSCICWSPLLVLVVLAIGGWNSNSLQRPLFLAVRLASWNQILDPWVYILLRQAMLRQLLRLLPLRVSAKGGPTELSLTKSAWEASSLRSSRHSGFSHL
In words: Selectivity test: antagonistic action on rat EP1 receptor (intracellular Ca2+, HEK-293 cells). It counts as cell-based. The conditions noted are these: PGE2 100 nmol/L, HEK-293 cells stably expressing rat EP1; read-out: Concentration up to which no inhibitory action of 50% or more on the increase in intracellular Ca2+ concentration due to PGE2 through the rat EP1 receptor. The method, then:
Test Example 9: Evaluation Test of Receptor Antagonistic Action on Rat EP1/EP2/EP3 Receptor (Selectivity Test)
The antagonistic action of Compound A on other subtypes ([…], EP2, and EP3) of the rat-derived PGE2 receptor was evaluated. For EP1 and EP3, the intracellular Ca^2+ amount was used as an indicator, and for EP2, the intracellular cAMP amount was used as an indicator, so as to investigate the action of the test compound.
Construction of Rat EP1, EP2, or EP3 Receptor Expressing Vector: A rat EP1 receptor gene (GenBank accession No.: D88751.1), a rat EP2 receptor gene (GenBank accession No.: NM_031088.1), or a rat EP3 receptor gene (GenBank accession No.: NM_012704.1) were inserted respectively into an expression vector pcDNA3.1-V5-His-TOPO (Invitrogen Inc.).
Construction of Cell Stably Expressing Rat EP1, EP2, or EP3 Receptor: […]
The intracellular Ca^2+ concentration was measured using FLIPR tetra (Molecular Devices, LLC.) with the fluorescence intensity of the Dye as an indicator. […] By taking the Ca^2+ concentration when PGE2 was added to a final concentration of 100 nmol/L as 100%, and taking the Ca^2+ concentration when PGE2 was not added as 0%, the Ca^2+ concentration in percentage with a treatment with the compound was calculated.

A further experiment deals with rat EP4 receptor (Rattus norvegicus, UniProt P43114). As to the kind of experiment: In vivo rat EP4 receptor antagonistic action (plasma TNF-α after LPS and EP4 agonist ONO-AE1-437). Details: from tissue; host or cells: whole animal (SD rat). The conditions noted are these: SD rats, 0.03 mg/kg po, ONO-AE1-437 0.01 mg/kg sc, LPS 0.01 mg/kg iv. The method, then: Test Example 5: Evaluation Test of In Vivo Rat EP4 Receptor Antagonistic Action
Chain of rat EP4 receptor (P43114 whole entry): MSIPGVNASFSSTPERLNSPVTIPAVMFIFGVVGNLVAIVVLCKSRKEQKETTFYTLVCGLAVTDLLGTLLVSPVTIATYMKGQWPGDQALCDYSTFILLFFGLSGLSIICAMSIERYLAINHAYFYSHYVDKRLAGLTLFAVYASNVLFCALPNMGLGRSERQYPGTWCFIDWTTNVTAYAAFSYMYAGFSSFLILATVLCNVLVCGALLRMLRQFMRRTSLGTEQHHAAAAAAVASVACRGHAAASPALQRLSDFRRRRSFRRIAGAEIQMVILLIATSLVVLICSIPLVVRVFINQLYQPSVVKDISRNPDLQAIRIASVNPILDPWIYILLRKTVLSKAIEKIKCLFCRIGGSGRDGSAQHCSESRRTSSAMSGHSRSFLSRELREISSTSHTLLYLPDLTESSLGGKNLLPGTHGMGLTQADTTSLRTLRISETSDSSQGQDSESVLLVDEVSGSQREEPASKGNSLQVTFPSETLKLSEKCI
SD rats (male, 6-week old) under non-fasting conditions were used for the test. A test compound dissolved in a mixed solution of PEG 400: 20% Tween 80: 1 mol/L aqueous NaHCO3 solution=1:4:5 was orally administered (po) to the rat at a dose of 0.03 mg/kg (5 mL/kg). After 1 hour, an active metabolite (ONO-AE1-437 (CAS No. 256382-23-7)) of an EP4 agonist ONO-4819 dissolved in physiological saline was subcutaneously administered (sc) to the back of the rat at a dose of 0.01 mg/kg (5 mL/kg). After 30 minutes, Lipopolysaccharide (LPS, 0.01 mg/kg) was administered to the tail vein (2 mL/kg), and after 60 minutes, about 0.5 mL of blood was collected in a heparin-containing tube under anesthesia. The blood sample was centrifuged (1000×g, 10 minutes, 4° C.) to separate the plasma. The TNF-α concentration in the rat plasma was measured by an ELISA kit (DuoSet ELISA, R&D Systems). An inhibitory rate of the test compound group (n=5) with respect to the TNF-α production inhibitory action by the EP4 agonist was calculated by taking the TNF-α concentration of the group (n=5) not treated with ONO-AE1-437 as 100% and taking the TNF-α concentration of the group (n=5) treated with ONO-AE1-437 as 0%.

Regarding `Cc1nn(Cc2cc3ccccc3cn2)c(C(=O)N[C@@H](C)c2ccc(C(=O)O)cc2)c1Br` [Compound A, 4-[(1S)-1-({[4-bromo-1-(isoquinolin-3-ylmethyl)-3-methyl-1H-pyrazol-5-yl]carbonyl}amino)ethyl]benzoic acid], the IC50 on rat EP1 receptor is more than 10 µM. The “Inhibition of the TNF-α production inhibitory action of the EP4 agonist ONO-AE1-437” value at rat EP4 receptor came out at 38%.
